Data taken from BigSolDB 2.1.

NC(=O)c1cccnc1
solubility (mole fraction)
Settings	in acetone	in ethanol	in ethyl acetate	in isobutanol	in isopropanol	in methanol	in methyl acetate	in n-butanol	in n-butyl acetate	in n-propanol
283.15 K	0.0116	0.0263	0.00797	0.0222	0.0187	0.0541	0.00929	0.0235	0.00936	0.0219
288.15 K	0.0134	0.032	0.00871	0.0248	0.023	0.0643	0.0101	0.0274	0.00955	0.0266
293.15 K	0.0164	0.0374	0.01	0.0292	0.0281	0.0748	0.0117	0.0315	0.01	0.0321
298.15 K	0.0191	0.0444	0.0112	0.0345	0.0328	0.0876	0.0135	0.0362	0.0107	0.0378
303.15 K	0.0234	0.0537	0.0129	0.0392	0.0396	0.102	0.0156	0.0416	0.0114	0.045
308.15 K	0.0286	0.0638	0.0145	0.0456	0.048	0.121	0.0179	0.0482	0.0124	0.0542
313.15 K	0.0342	0.0766	0.0163	0.0544	0.0573	0.141	0.0209	0.0566	0.0135	0.0647
318.15 K	0.0392	0.0912	0.0182	0.0637	0.0673	0.166	0.0235	0.0664	0.0153	0.0766
323.15 K	0.0472	0.11	0.0213	0.0754	0.0801	0.192	0.0272	0.0774	0.0181	0.0924
